Source: publication PMC7558399, “In Vitro Selective Growth-Inhibitory Activities of Phytochemicals, Synthetic Phytochemical Analogs, and Antibiotics against Diarrheagenic/Probiotic Bacteria and Cancer/Normal Intestinal Cells” (Pharmaceuticals, 2020)
In brackets after ≈: the same amount, converted by molar mass. Read-outs that look alike come from different tables or passages of the source.

Tests used:
Format in all cases: cell-based
[1] = tested on: Clostridium perfringens (DSMZ 11778); test: microbe, parasite or virus in culture; details: DSMZ11778
[2] = tested on: Bifidobacterium animalis spp. lactis (DSMZ 10140); test: Broth microdilution MIC, B. animalis spp. lactis; details: DSMZ10140; Bifidobacterium animalis spp. lactis; growth inhibited by ≥80%; read-out: MIC
[3] = tested on: Lactobacillus casei (DSMZ 20011); test: Broth microdilution MIC, L. casei; details: Lacticaseibacillus casei, DSMZ20011; Lactobacillus casei; growth inhibited by ≥80%; read-out: MIC
[4] = tested on: Bifidobacterium bifidum (ATCC 29521); test: Broth microdilution MIC, B. bifidum; details: ATCC29521, growth inhibited by ≥80%, read-out: MIC
[5] = tested on: Lactobacillus reuteri (CCM 3625); test: Broth microdilution MIC, L. reuteri; details: Limosilactobacillus reuteri, CCM3625; Lactobacillus reuteri; growth inhibited by ≥80%; read-out: MIC
[6] = tested on: intestinal cancer cells (HT29 and Caco-2); test: MTT cytotoxicity assay, mean for intestinal cancer cells; details: for IC50: mean of HT29 and Caco-2, >512 replaced with 1024, read-out: x¯ -CC ± SD: mean IC50 for intestinal cancer cells; for IC80: read-out: x¯ -CC ± SD: mean IC80 for intestinal cancer cells
[7] = tested on: Clostridium difficile (DSMZ 12056); test: microbe, parasite or virus in culture; details: Clostridioides difficile, DSMZ12056; Clostridium difficile; […]; read-out: MIC
[8] = tested on: Escherichia coli (ATCC 25922); test: Broth microdilution MIC, E. coli; details: ATCC25922, growth inhibited by ≥80%, read-out: MIC
[9] = tested on: Vibrio parahaemolyticus (ATCC 17802); test: Broth microdilution MIC, V. parahaemolyticus; details: ATCC17802, growth inhibited by ≥80%, read-out: MIC
[10] = tested on: Bifidobacterium longum ssp. longum (DSMZ 20219); test: Broth microdilution MIC, B. longum ssp. longum; details: DSMZ20219; Bifidobacterium longum ssp. longum; growth inhibited by ≥80%; read-out: MIC
[11] = tested on: Enterococcus faecalis (ATCC 29212); test: Broth microdilution MIC, E. faecalis; details: ATCC29212, growth inhibited by ≥80%, read-out: MIC
[12] = tested on: Caco-2 (ATCC HTB 37) intestinal cancer cells; test: MTT cytotoxicity assay, Caco-2; details: Homo sapiens, Caco-2, MTT, 72 h; for IC50: read-out: IC50 ± SD; for IC80: read-out: IC80 ± SD (80% inhibitory concentration of proliferation)
[13] = tested on: S. enterica ssp. enterica serovar Typhimurium (ATCC 14028); test: Broth microdilution MIC, Salmonella Typhimurium; details: Salmonella Typhimurium, growth inhibited by ≥80%, read-out: MIC
[14] = tested on: Bifidobacterium adolescentis (DSMZ 20087); test: Broth microdilution MIC, B. adolescentis; details: DSMZ20087, growth inhibited by ≥80%, read-out: MIC
[15] = tested on: Bifidobacterium breve (ATCC 15700); test: Broth microdilution MIC, B. breve; details: ATCC15700, growth inhibited by ≥80%, read-out: MIC
[16] = tested on: Shigella flexneri (ATCC 12022); test: microbe, parasite or virus in culture; details: ATCC12022
[17] = tested on: E. coli 0175:H7 (NCTC 12900); test: microbe, parasite or virus in culture; details: Escherichia coli, NCTC12900
[18] = tested on: HT29 (ATCC HTB 38) intestinal cancer cells; test: MTT cytotoxicity assay, HT29; details: Homo sapiens, HT-29, HT29, MTT, 72 h; for IC50: read-out: IC50 ± SD; for IC80: read-out: IC80 ± SD (80% inhibitory concentration of proliferation)
[19] = tested on: Salmonella enterica ssp. enterica serovar Enteritidis (ATCC 13076); test: Broth microdilution MIC, Salmonella Enteritidis; details: Salmonella Enteritidis, growth inhibited by ≥80%, read-out: MIC
[20] = tested on: Lactobacillus rhamnosus (CCM 7091); test: Broth microdilution MIC, L. rhamnosus; details: Lacticaseibacillus rhamnosus, CCM7091; Lactobacillus rhamnosus; growth inhibited by ≥80%; read-out: MIC
[21] = tested on: Listeria monocytogenes (ATCC 7644); test: Broth microdilution MIC, L. monocytogenes; details: ATCC7644, growth inhibited by ≥80%, read-out: MIC
[22] = tested on: probiotic bacteria (9 strains); test: Broth microdilution MIC, probiotic bacteria as a group (mean or range over strains)
[23] = tested on: Bacillus cereus (ATCC 14579); test: Broth microdilution MIC, B. cereus; details: median/mode, read-out: MIC
[24] = tested on: Yersinia enterocolitica (ATCC 9610); test: Broth microdilution MIC, Y. enterocolitica; details: ATCC9610, growth inhibited by ≥80%, read-out: MIC
[25] = tested on: diarrheagenic bacteria (12 strains); test: organism not typed
[26] = tested on: FHs 74 Int (ATCC CCL 241) intestinal normal cells; test: MTT cytotoxicity assay, FHs 74 Int; details: FHs 74 Int (intestinal normal cells), MTT, 72 h; for IC50 / IC80: FHs74Int; for IC50: read-out: IC50 ± SD; for IC80: read-out: IC80 ± SD (80% inhibitory concentration of proliferation)
[27] = tested on: Bacteroides fragilis (ATCC 25285); test: Broth microdilution MIC, B. fragilis
[28] = mean of 9 strains, >512 replaced with 1024, read-out: x¯ -PB ± SD: mean MIC for probiotic bacteria
[29] = mean of 12 strains, >512 replaced with 1024, read-out: x¯ -DB ± SD: mean MIC for diarrheagenic bacteria

Row | SMILES | MIC [1] [µg/mL] | MIC [2] [µg/mL] | MIC [3] [µg/mL] | MIC [4] [µg/mL] | MIC [5] [µg/mL] | IC50 [6] [µg/mL] | IC80 [6] [µg/mL] | MIC [7] [µg/mL] | MIC [8] [µg/mL] | MIC [9] [µg/mL] | MIC [10] [µg/mL] | MIC [11] [µg/mL] | IC50 [12] [µg/mL] | IC80 [12] [µg/mL] | MIC [13] [µg/mL] | MIC [14] [µg/mL] | MIC [15] [µg/mL] | MIC [16] [µg/mL] | MIC [17] [µg/mL] | IC50 [18] [µg/mL] | further results
1 | O=C(N[C@H](CO)[C@H](O)c1ccc([N+](=O)[O-])cc1)C(Cl)Cl [CA, chloramphenicol] | 4 (≈ 12.4 µM) | 4 (≈ 12.4 µM) | 16 (≈ 49.5 µM) | 4 (≈ 12.4 µM) | 8 (≈ 24.8 µM) | 355 ± 84 (≈ 1100 µM) | > 512 | 4 (≈ 12.4 µM) | 4 (≈ 12.4 µM) | 2 (≈ 6.19 µM) | 4 (≈ 12.4 µM) | 128 (≈ 396 µM) | 439.3 ± 4 (≈ 1360 µM) | > 512 | 8 (≈ 24.8 µM) | 4 (≈ 12.4 µM) | 4 (≈ 12.4 µM) | 4 (≈ 12.4 µM) | 8 (≈ 24.8 µM) | 271.1 ± 1 (≈ 839 µM) | IC80 [18]: > 512 µg/mL; MIC [19]: 4 µg/mL (≈ 12.4 µM); MIC [20]: 8 µg/mL (≈ 24.8 µM); MIC [21]: 8 µg/mL (≈ 24.8 µM); MIC ([22]; bifidobacteria, range over strains, read-out: MICs): 2 to 4 µg/mL (≈ 6.19 to 12.4 µM); MIC [22, 28]: 6.2 ± 4 µg/mL (≈ 19.2 µM); MIC ([23]; ATCC14579, growth inhibited by ≥80%): 8 µg/mL (≈ 24.8 µM); MIC [24]: 16 µg/mL (≈ 49.5 µM); MIC ([25]; at least half of the diarrheagenic bacteria, read-out: MICs): 1 to 4 µg/mL (≈ 3.09 to 12.4 µM); MIC [25, 29]: 16.5 ± 34 µg/mL (≈ 51.1 µM); IC80 ± SD (80% inhibitory concentration of proliferation) [26]: - (Not active (MIC/IC50/80 > 512 μg/mL, the value 1024 μg/mL was used for average calculation)); IC50 [26]: 30.7 ± 5.6 µg/mL (≈ 95 µM); IC80 [26]: > 512 µg/mL; MIC ([27]; ATCC25285, growth inhibited by ≥80%, read-out: MIC): 4 µg/mL (≈ 12.4 µM)
2 | CO/N=C(\C(=O)N[C@@H]1C(=O)N2C(C(=O)O)=C(CSc3nc(=O)c(=O)[nH]n3C)CS[C@H]12)c1csc(N)n1 [CF, ceftriaxone sodium] | 4 | 2 | 32 | 4 | 0.5 | > 512 | > 512 | 64 | 0.062 | 0.125 | 8 | 512 | > 512 | > 512 | 0.25 | 1 | 32 | 0.5 | 0.5 | > 512 | IC80 [18]: > 512 µg/mL; MIC [19]: 0.25 µg/mL; MIC [20]: 32 µg/mL; MIC [21]: 32 µg/mL; MIC ([22]; Bifidobacterium breve and Bifidobacterium longum ssp. longum, read-out: MICs): 8 to 32 µg/mL; MIC ([22]; lactobacilli, range over strains, read-out: MICs): 0.5 to 32 µg/mL; MIC [22, 28]: 26.6 ± 38 µg/mL; MIC ([22]; remaining bifidobacteria (other than B. breve and B. longum ssp. longum), read-out: MICs): 1 to 4 µg/mL; MIC ([23]; ATCC14579, […]): 128 µg/mL; MIC [24]: 0.25 µg/mL; MIC ([25]; all gram-negative diarrheagenic bacteria, range over strains, read-out: MICs): 0.062 to 0.5 µg/mL; MIC ([25]; gram-positive pathogens, range over strains, read-out: MICs): 4 to 512 µg/mL; MIC [25, 29]: 61.8 ± 141 µg/mL; IC50 ± SD [26]: - (Not active (MIC/IC50/80 > 512 μg/mL, the value 1024 μg/mL was used for average calculation)); IC80 ± SD (80% inhibitory concentration of proliferation) [26]: - (Not active (MIC/IC50/80 > 512 μg/mL, the value 1024 μg/mL was used for average calculation)); IC50 [26]: > 512 µg/mL; IC80 [26]: > 512 µg/mL; MIC ([27]; ATCC25285): 128 µg/mL
